In patent publication US8158636B2, “Compounds and methods for kinase modulation, and indications therefor” (Plexxikon Inc., priority 2008, dated 2012):

Key:
Type in all cases: biochemical
Src = Src (Homo sapiens, UniProt P12931); test: Kinase activity assay, Src; details: Table 1k; read-out: activity toward kinase Src, IC50
From the text: (§1) Assays for the activity of kinases, including, but not limited to, Fms, Kit, B-Raf, B-Raf V600E, c-Raf-1, and TrkA are known in the art, for example as described in US Patent Publication Number US20070032519 and U.S. patent application Ser. No. 11/473,347 (see also, PCT publication WO2007002433), the disclosures of which are hereby incorporated by reference with respect to such assays.

TrkA = TrkA (Homo sapiens, UniProt P04629); test: Kinase activity assay, TrkA; details: Table 1m; read-out: activity toward kinase TrkA, IC50
From the text: as §1

Kit = Kit (Homo sapiens, UniProt P10721); test: Kinase activity assay, Kit; details: Table 1j; read-out: activity toward kinase Kit, IC50
From the text: as §1

Flt-3 = target: T1, Flt-3 (Homo sapiens, UniProt P36888); test: Kinase activity assay, Flt-3; details: Table 1g; read-out: activity toward kinase Flt-3, IC50
T1 sequence (P36888 27-993): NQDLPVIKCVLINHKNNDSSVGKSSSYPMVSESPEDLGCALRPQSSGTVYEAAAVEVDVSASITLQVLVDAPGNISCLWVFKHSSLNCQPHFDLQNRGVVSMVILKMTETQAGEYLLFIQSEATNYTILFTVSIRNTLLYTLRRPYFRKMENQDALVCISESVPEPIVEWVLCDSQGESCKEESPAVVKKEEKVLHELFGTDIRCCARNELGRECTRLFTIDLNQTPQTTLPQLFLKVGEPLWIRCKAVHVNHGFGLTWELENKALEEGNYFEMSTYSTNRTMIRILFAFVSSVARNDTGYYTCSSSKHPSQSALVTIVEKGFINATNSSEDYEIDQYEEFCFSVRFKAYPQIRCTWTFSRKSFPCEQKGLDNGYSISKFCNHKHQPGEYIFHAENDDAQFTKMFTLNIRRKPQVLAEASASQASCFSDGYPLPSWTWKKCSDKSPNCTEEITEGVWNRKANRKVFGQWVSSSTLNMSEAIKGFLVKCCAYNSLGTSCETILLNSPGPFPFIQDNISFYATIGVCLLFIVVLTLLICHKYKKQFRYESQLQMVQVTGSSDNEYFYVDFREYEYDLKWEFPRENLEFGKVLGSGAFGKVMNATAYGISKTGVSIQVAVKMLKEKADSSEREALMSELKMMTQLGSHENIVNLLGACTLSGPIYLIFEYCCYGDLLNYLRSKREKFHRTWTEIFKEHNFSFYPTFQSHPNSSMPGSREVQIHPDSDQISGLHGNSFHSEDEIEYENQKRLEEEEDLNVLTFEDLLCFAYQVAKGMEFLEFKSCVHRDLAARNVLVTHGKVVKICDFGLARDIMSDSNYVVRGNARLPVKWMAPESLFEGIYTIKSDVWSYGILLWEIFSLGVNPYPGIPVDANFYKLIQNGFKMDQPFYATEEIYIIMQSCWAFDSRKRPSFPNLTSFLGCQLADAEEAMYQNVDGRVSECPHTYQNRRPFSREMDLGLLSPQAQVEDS
From the text: as §1

Kdr = Kdr (Homo sapiens, UniProt P35968); test: Kinase activity assay, Kdr; details: Table 1i; read-out: activity toward kinase Kdr, IC50
From the text: as §1

Fms = Fms (Homo sapiens, UniProt P07333); test: Kinase activity assay, Fms; details: Table 1h; read-out: activity toward kinase Fms, IC50
From the text: as §1

Flt-1 = Flt-1 (Homo sapiens, UniProt P17948); test: Kinase activity assay, Flt-1; details: Table 1f; read-out: activity toward kinase Flt-1, IC50
From the text: as §1

B-Raf V600E = B-Raf V600E (Homo sapiens, UniProt P15056, V600E); test: Kinase activity assay, B-Raf V600E; details: Table 1c; read-out: activity toward kinase B-Raf V600E, IC50
From the text: as §1

A-Raf = target: T2, A-Raf (Homo sapiens, UniProt P10398); test: Kinase activity assay, A-Raf; details: Table 1a; read-out: activity toward kinase A-Raf, IC50
T2 sequence (P10398 1-606): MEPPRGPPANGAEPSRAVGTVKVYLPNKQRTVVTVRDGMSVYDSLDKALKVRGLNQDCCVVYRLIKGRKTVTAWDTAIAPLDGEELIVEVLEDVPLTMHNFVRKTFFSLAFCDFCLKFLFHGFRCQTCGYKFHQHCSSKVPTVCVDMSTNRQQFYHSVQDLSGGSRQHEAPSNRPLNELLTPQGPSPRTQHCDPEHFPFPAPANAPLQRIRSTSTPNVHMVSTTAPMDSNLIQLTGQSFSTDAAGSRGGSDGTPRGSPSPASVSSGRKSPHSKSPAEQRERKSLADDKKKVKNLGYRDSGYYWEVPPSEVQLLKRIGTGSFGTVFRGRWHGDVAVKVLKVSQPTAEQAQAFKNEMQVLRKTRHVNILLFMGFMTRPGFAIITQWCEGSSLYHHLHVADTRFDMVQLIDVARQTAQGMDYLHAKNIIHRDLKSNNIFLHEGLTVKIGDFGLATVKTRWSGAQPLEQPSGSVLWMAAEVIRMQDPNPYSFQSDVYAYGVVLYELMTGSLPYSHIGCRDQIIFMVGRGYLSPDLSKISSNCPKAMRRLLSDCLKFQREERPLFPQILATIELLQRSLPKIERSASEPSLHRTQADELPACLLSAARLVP
From the text: as §1

Btk = Btk (Homo sapiens, UniProt Q06187); test: Kinase activity assay, Btk; details: Table 1e; read-out: activity toward kinase Btk, IC50
From the text: as §1

B-Raf = B-Raf (Homo sapiens, UniProt P15056); test: Kinase activity assay, B-Raf; details: Table 1b; read-out: activity toward kinase B-Raf, IC50
From the text: as §1

C-Raf = C-Raf (Homo sapiens, UniProt P04049); test: Kinase activity assay, C-Raf; details: Table 1d; read-out: activity toward kinase C-Raf, IC50
From the text: as §1

Chain of B-Raf V600E (P15056 whole entry V600E): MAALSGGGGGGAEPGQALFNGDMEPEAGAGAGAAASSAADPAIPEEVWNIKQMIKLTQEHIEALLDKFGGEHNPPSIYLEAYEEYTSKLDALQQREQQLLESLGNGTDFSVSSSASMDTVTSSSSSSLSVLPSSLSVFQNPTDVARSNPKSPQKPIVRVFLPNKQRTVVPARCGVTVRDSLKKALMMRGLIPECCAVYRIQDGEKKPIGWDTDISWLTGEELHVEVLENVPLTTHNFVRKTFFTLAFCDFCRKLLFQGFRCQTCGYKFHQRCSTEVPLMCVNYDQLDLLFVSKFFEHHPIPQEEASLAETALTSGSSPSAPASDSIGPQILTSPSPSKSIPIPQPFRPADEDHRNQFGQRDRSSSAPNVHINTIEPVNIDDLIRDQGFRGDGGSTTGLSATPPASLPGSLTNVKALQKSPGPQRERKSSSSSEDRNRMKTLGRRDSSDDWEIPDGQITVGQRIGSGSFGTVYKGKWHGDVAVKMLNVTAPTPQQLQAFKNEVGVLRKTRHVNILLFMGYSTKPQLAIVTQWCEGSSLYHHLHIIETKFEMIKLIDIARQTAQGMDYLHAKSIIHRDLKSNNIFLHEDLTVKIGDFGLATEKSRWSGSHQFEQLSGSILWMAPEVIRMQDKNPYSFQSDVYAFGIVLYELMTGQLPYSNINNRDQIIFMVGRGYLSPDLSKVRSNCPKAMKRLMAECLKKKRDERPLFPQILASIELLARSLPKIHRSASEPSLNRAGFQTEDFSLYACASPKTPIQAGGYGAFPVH
Chain of Src (P12931 whole entry): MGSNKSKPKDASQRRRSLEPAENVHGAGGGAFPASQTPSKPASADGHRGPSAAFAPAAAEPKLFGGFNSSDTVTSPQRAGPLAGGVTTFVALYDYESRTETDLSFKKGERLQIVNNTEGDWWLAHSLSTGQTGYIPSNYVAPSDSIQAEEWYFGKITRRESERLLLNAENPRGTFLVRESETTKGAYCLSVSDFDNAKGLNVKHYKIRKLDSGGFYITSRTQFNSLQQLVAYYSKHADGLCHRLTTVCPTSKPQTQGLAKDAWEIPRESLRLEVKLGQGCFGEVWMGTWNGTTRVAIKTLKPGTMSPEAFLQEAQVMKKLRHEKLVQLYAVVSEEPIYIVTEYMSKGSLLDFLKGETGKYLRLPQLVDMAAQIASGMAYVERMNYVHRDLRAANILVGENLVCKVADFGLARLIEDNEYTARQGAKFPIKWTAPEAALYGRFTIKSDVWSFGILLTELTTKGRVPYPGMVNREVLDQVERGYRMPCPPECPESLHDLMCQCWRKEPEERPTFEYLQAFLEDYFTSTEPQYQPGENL
Chain of TrkA (P04629 33-796): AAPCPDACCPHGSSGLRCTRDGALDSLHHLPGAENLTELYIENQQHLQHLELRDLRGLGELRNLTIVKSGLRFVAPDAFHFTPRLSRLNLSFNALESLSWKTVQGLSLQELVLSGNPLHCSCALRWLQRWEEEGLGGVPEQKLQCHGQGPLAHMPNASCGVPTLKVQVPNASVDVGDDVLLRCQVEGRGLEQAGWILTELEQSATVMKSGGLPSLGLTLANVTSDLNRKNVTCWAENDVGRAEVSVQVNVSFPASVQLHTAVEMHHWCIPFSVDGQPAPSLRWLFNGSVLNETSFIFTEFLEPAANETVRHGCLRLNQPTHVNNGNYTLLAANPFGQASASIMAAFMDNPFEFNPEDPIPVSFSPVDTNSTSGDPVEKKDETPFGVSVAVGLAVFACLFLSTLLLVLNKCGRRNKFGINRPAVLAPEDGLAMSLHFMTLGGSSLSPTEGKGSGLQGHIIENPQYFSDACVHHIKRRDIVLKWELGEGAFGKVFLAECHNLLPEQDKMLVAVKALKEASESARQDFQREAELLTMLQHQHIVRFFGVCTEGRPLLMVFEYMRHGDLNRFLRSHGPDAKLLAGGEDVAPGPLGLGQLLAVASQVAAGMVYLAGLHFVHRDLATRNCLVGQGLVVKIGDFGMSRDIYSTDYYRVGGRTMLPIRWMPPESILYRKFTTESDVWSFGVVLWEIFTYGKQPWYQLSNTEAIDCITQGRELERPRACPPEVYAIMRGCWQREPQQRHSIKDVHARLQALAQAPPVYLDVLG
Chain of B-Raf (P15056 whole entry): as the sequence (P15056 whole entry V600E) above, with E600V counted along it
Chain of Fms (P07333 20-972): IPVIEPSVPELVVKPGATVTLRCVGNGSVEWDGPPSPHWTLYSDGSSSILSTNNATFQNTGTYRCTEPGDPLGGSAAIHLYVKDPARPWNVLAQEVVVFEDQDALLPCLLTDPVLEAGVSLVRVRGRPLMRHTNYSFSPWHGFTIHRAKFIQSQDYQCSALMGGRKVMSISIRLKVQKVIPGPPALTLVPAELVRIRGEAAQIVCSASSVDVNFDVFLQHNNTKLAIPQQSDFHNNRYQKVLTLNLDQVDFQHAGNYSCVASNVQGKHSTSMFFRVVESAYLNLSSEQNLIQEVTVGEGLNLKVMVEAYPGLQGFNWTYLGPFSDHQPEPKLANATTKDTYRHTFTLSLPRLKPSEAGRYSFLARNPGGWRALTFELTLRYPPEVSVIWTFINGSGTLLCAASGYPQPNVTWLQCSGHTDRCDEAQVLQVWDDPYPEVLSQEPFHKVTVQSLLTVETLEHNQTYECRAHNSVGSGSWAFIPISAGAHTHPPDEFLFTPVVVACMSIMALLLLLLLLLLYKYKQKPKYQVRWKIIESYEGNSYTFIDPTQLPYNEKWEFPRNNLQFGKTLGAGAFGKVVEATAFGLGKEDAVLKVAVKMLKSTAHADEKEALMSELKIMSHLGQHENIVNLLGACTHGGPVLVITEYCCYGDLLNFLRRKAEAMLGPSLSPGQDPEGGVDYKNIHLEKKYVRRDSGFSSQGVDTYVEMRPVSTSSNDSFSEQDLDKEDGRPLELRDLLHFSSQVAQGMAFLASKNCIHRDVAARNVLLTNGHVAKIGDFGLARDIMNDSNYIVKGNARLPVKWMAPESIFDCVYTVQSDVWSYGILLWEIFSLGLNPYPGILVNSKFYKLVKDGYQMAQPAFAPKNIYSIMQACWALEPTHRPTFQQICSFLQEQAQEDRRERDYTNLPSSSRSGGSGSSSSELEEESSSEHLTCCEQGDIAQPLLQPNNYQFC
Chain of C-Raf (P04049 whole entry): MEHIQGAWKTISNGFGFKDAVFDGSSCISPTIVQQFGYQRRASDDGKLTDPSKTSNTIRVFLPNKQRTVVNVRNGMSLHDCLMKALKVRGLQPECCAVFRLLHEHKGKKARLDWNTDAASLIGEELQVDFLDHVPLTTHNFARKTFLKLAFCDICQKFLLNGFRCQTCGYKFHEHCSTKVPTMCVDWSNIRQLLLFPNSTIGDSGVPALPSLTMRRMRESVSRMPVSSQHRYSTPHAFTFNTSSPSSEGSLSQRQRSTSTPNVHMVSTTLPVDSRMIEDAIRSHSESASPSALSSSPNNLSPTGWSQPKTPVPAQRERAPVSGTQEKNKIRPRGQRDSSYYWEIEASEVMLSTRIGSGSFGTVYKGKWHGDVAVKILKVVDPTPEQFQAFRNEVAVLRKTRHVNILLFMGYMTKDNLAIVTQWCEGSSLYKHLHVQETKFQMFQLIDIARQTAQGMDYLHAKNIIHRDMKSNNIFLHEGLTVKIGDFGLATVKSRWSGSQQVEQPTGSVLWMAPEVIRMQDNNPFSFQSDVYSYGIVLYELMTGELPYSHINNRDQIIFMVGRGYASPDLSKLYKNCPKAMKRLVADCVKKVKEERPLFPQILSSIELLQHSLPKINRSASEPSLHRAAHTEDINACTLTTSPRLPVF
Chain of Btk (Q06187 whole entry): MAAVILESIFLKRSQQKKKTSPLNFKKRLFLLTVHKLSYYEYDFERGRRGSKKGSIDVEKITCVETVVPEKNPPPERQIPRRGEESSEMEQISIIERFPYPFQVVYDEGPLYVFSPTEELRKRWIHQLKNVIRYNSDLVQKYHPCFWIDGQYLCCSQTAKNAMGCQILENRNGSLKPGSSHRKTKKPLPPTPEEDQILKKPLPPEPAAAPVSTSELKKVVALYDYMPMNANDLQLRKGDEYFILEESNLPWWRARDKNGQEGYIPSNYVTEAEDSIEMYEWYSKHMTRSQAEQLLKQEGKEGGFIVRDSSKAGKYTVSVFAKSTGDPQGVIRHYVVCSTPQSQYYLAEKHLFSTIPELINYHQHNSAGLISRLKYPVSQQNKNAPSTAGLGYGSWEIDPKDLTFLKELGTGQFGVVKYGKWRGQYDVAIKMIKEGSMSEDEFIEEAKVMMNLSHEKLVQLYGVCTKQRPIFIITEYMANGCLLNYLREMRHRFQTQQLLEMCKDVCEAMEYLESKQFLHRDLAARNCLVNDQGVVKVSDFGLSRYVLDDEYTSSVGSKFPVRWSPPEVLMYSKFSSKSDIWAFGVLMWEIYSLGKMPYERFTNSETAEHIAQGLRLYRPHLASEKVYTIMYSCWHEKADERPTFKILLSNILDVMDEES

| Compound | IC50 (Src) [µM] | IC50 (TrkA) [µM] | IC50 (Kit) [µM] | IC50 (Flt-3) [µM] | IC50 (Kdr) [µM] | IC50 (Fms) [µM] | IC50 (Flt-1) [µM] | IC50 (B-Raf V600E) [µM] | IC50 (A-Raf) [µM] | IC50 (Btk) [µM] | IC50 (B-Raf) [µM] | IC50 (C-Raf) [µM] |
| --- | --- | --- | --- | --- | --- | --- | --- | --- | --- | --- | --- | --- |
| COc1ncc(F)cc1CNc1ccc(Cc2c[nH]c3ncncc23)c(F)n1 [P-0011, (5-Fluoro-2-methoxy-pyridin-3-ylmethyl)-[6-fluoro-5-(7H-pyrrolo[2,3-d]pyrimidin-5-ylmethyl)-pyridin-2-yl]-amine] | – | ≤ 10 | ≤ 10 | ≤ 10 | ≤ 10 | ≤ 10 | – | – | ≤ 10 | – | – | – |
| COc1ccc(CNc2ccc(Cc3c[nH]c4ncnc(OC)c34)cn2)cn1 [P-0013, (6-Methoxy-pyridin-3-ylmethyl)-[5-(4-methoxy-7H-pyrrolo[2,3-d]pyrimidin-5-ylmethyl)-pyridin-2-yl]-amine] | – | – | ≤ 10 | ≤ 10 | ≤ 10 | ≤ 10 | – | ≤ 10 | ≤ 10 | – | ≤ 10 | – |
| COc1ncnc2[nH]cc(Cc3ccc(NCc4ccccc4Cl)nc3)c12 [P-0014, (2-Chloro-benzyl)-[5-(4-methoxy-7H-pyrrolo[2,3-d]pyrimidin-5-ylmethyl)-pyridin-2-yl]-amine] | ≤ 10 | – | ≤ 10 | ≤ 10 | ≤ 10 | ≤ 10 | – | ≤ 10 | ≤ 10 | – | – | – |
| Fc1nc(NCc2cccnc2OC2CCCCC2)ccc1Cc1c[nH]c2ncncc12 [P-0088, (2-Cyclohexyloxy-pyridin-3-ylmethyl)-[6-fluoro-5-(7H-pyrrolo[2,3-d]pyrimidin-5-ylmethyl)-pyridin-2-yl]-amine] | ≤ 10 | – | ≤ 10 | – | ≤ 10 | ≤ 10 | – | ≤ 10 | – | – | ≤ 10 | ≤ 10 |
| COc1ncnc2[nH]cc(Cc3ccc(NCc4ccccc4Cl)nc3F)c12 [P-0090, (2-Chloro-benzyl)-[6-fluoro-5-(4-methoxy-7H-pyrrolo[2,3-d]pyrimidin-5-ylmethyl)-pyridin-2-yl]-amine] | ≤ 10 | ≤ 10 | ≤ 10 | – | – | ≤ 10 | – | – | – | – | – | – |
| COc1ncc(CNc2ncc(Cc3c[nH]c4ncnc(OC)c34)cn2)cc1F [P-0092, (5-Fluoro-6-methoxy-pyridin-3-ylmethyl)-[5-(4-methoxy-7H-pyrrolo[2,3-d]pyrimidin-5-ylmethyl)-pyrimidin-2-yl]-amine] | ≤ 10 | – | ≤ 10 | – | – | ≤ 10 | – | – | – | – | – | ≤ 10 |
| COc1ncnc2[nH]cc(Cc3cnc(NCc4cncc(F)c4)nc3)c12 [P-0098, (5-Fluoro-pyridin-3-ylmethyl)-[5-(4-methoxy-7H-pyrrolo[2,3-d]pyrimidin-5-ylmethyl)-pyrimidin-2-yl]-amine] | – | ≤ 10 | ≤ 10 | – | – | ≤ 10 | – | – | – | ≤ 10 | – | – |
| COc1ncnc2[nH]cc(Cc3ccc(NCc4ccc(C(F)(F)F)nc4)nc3F)c12 [P-0101, [6-Fluoro-5-(4-methoxy-7H-pyrrolo[2,3-d]pyrimidin-5-ylmethyl)-pyridin-2-yl]-(6-trifluoromethyl-pyridin-3-ylmethyl)-amine] | – | ≤ 10 | ≤ 10 | – | ≤ 10 | ≤ 10 | – | ≤ 10 | – | ≤ 10 | ≤ 10 | ≤ 10 |

Next, values leading:

| IC50 (Src) [µM] | IC50 (TrkA) [µM] | IC50 (Kit) [µM] | IC50 (Flt-3) [µM] | IC50 (Kdr) [µM] | IC50 (Fms) [µM] | IC50 (Flt-1) [µM] | IC50 (B-Raf V600E) [µM] | IC50 (A-Raf) [µM] | IC50 (Btk) [µM] | IC50 (B-Raf) [µM] | IC50 (C-Raf) [µM] | Compound |
| --- | --- | --- | --- | --- | --- | --- | --- | --- | --- | --- | --- | --- |
| ≤ 10 | ≤ 10 | ≤ 10 | ≤ 10 | ≤ 10 | ≤ 10 | – | – | – | – | – | – | Fc1nc(NCc2ccccc2Cl)ccc1Cc1c[nH]c2ncncc12 [P-0005, (2-Chloro-benzyl)-[6-fluoro-5-(7H-pyrrolo[2,3-d]pyrimidin-5-ylmethyl)-pyridin-2-yl]-amine] |
| ≤ 10 | ≤ 10 | ≤ 10 | ≤ 10 | ≤ 10 | ≤ 10 | ≤ 10 | ≤ 10 | ≤ 10 | – | – | – | Fc1nc(NCc2ccc(Cl)cc2)ccc1Cc1c[nH]c2ncncc12 [P-0006, (4-Chloro-benzyl)-[6-fluoro-5-(7H-pyrrolo[2,3-d]pyrimidin-5-ylmethyl)-pyridin-2-yl]-amine] |
| – | ≤ 10 | ≤ 10 | ≤ 10 | ≤ 10 | ≤ 10 | – | ≤ 10 | ≤ 10 | – | – | – | Fc1nc(NCc2ccc(C(F)(F)F)nc2)ccc1Cc1c[nH]c2ncncc12 [P-0007, [6-Fluoro-5-(7H-pyrrolo[2,3-d]pyrimidin-5-ylmethyl)-pyridin-2-yl]-(6-trifluoromethyl-pyridin-3-ylmethyl)-amine] |
| – | – | ≤ 10 | ≤ 10 | ≤ 10 | ≤ 10 | – | ≤ 10 | ≤ 10 | ≤ 10 | – | – | COc1ccc(CNc2ccc(Cc3c[nH]c4ncncc34)c(F)n2)cn1 [P-0009, [6-Fluoro-5-(7H-pyrrolo[2,3-d]pyrimidin-5-ylmethyl)-pyridin-2-yl]-(6-methoxy-pyridin-3-ylmethyl)-amine] |
| ≤ 10 | ≤ 10 | ≤ 10 | – | – | ≤ 10 | – | ≤ 10 | – | – | – | – | COc1ncnc2[nH]cc(Cc3ccc(NCc4cnccc4C(F)(F)F)nc3F)c12 [P-0095, [6-Fluoro-5-(4-methoxy-7H-pyrrolo[2,3-d]pyrimidin-5-ylmethyl)-pyridin-2-yl]-(4-trifluoromethyl-pyridin-3-ylmethyl)-amine] |
| ≤ 10 | ≤ 10 | ≤ 10 | – | – | ≤ 10 | – | – | – | – | – | – | COc1ncccc1CNc1ccc(Cc2c[nH]c3ncnc(OC)c23)c(F)n1 [P-0097, [6-Fluoro-5-(4-methoxy-7H-pyrrolo[2,3-d]pyrimidin-5-ylmethyl)-pyridin-2-yl]-(2-methoxy-pyridin-3-ylmethyl)-amine] |
